# Assays:
# [1] = biological target: T1, Recombinant human Lp-PLA2 enzyme (Homo sapiens, UniProt Q13093); experiment: Recombinant human Lp-PLA2 (rhLp-PLA2) assay (PED6 assay); type: biochemical; details: PED6 substrate; recombinant human Lp-PLA2 at 4 nM or 110 pM; 30 min pre-incubation; fluorescence ex 480/em 540; read-out: rhLp-PLA2 (pIC50) (converted)
# T1 sequence (Q13093 22-441): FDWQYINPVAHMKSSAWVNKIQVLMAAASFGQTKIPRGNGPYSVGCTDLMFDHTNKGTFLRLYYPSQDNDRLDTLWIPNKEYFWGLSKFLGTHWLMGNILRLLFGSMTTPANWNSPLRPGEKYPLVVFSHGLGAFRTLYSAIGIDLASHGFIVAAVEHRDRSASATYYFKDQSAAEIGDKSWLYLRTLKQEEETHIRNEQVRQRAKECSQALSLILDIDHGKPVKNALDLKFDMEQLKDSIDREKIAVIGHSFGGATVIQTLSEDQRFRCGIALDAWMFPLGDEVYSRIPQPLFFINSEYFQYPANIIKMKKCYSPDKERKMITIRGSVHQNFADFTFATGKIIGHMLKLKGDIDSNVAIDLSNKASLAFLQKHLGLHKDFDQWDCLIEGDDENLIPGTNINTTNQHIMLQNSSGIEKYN
# Text: (1) Recombinant Human Lp-PLA2 (rhLp-PLA2) Assay (also Known as PED6 Assay)
# PED6 is a fluorescently labeled phospholipid that can be purchased directly from Invitogene or Molecular Probes. There is a fluorescence-quenching p-nitrophenyl group on the Sn3 position, and a Bodipy fluorescein (FL) group on the sn2 position. Once it is cleaved by the Lp-PLA2 enzyme, the FL group is released, resulting in enhanced fluorescence.
# Assay method: The compound to be tested (as shown in Table 1) was mixed with DMSO solution at a volume ratio of 1:3, diluted to prepare a source plate of a 384-well microplate. Then 0.01 μl of the compound was transferred via an ECHO liquid dispenser from the source plate to a 384-well Greiner 784076 plate, and 5 microliters of a buffer composed of 50 mM HEPES, pH 7.4, 150 mM NaCl, 1 mM CHAPS (the buffer solution contains Recombinant human Lp-PLA2 enzyme at a concentration of 4 nM or 110 pM) was added to each well on the plate. The plate was centrifuged at 500 rpm for 10 seconds. After 30 minutes of pre-incubation, 5 microliters of the above buffer solution was added to a 384-well Greiner784076 plate, and the plate was centrifuged at 500 rpm for 10 seconds.
# [2] = biological target: T2, Lp-PLA2 enzyme in human plasma (Homo sapiens, UniProt Q13093); experiment: Human plasma Lp-PLA2 assay (Thio-PAF assay); type: biochemical; details: mixed human plasma; 2-thio-PAF substrate with CPM; 30 min pre-incubation; fluorescence ex 380/em 485; read-out: Thio-PAF (pIC50) (converted)
# T2 construct: from tissue; host or cells: pooled (mixed) human plasma
# T2 sequence (Q13093 22-441): T1 sequence (Q13093 22-441)
# Method: (2) Human Plasma Lp-PLA2 Assay (Also Known as Thio-PAF Assay) The human plasma assay was conducted using the sulphatide analog of PAF (phosphatidylcholine), which is hydrolyzed to produce phospholipids containing free sulfhydryl groups, subjected to Michael addition with CPM to generate fluorescence-enhancing maleimide. Continuous quantitative analysis of thiol could be conducted by detecting the fluorescence intensity. This assay can be used to detect the inhibitory activity of the Lp-PLA2 inhibitor on the Lp-PLA2 enzyme in human plasma. Assay Method: The compound to be tested (as shown in Table 2) was mixed with a DMSO solution in a volume ratio of (1:3), and diluted to prepare a source plate of a 384-well microplate. Then 0.01 μl of the compound was transferred via an ECHO liquid dispenser from the source plate to a 384-well Greiner 784076 low-volume plate, and 8 μl of pre-aliquoted and frozen mixed human plasma was added. The plate was centrifuged at 500 rpm for 10 seconds. After a 30 min pre-incubation, 2 μl of a substrate solution, and containing 2.5 mM 2-thio-PAF (a solution in ethanol), 32 μM CPM (a solution in DMSO) and a buffer of 3.2 mM N-ethylmaleimide (NEM) (a buffer solution consisting of 50 mM HEPES, pH 7.4, 150 mM NaCl, 1 mM CHAPS) was added by a BRAVO liquid handling station to a 384-well Greiner 784076 low-volume plate. After 2 min, the reaction was quenched with 5 μl of 5% trifluoroacetic acid. After the plate was incubated at room temperature for 40 min in a dark place, the fluorescence intensity was read at ex 380/em 485 with an Envision microplate reader, and the XL fitting model in Excel was used to perform the curve analysis and QC analysis to calculate pIC50.
IC50 [1] [nM],IC50 [2] [nM],SMILES
0.126,12.6,O=c1nc(OCc2cc(F)c(Oc3ccnc(C(F)(F)F)c3)c(F)c2)cc2n1CC[C@H]1COCCN21 [Compound 15]
0.1,10,Cc1ccc(Oc2c(F)cc(COc3cc4n(c(=O)n3)CC[C@H]3COCCN43)cc2F)cn1 [Compound 18]
0.0794,6.31,O=c1nc(OCc2cc(F)c(Oc3ccnc(C(F)(F)F)c3)c(F)c2)cc2n1CC[C@@H]1COCCN21 [Compound 4]
0.0631,7.94,Cc1ccc(Oc2c(F)cc(COc3cc4n(c(=O)n3)CC[C@@H]3COCCN43)cc2F)cn1 [Compound 7]
0.0794,7.94,Cc1cc(Oc2c(F)cc(COc3cc4n(c(=O)n3)CC[C@H]3COCCN43)cc2F)ccn1 [Compound 16]
0.1,12.6,O=c1nc(OCc2cc(F)c(Oc3ccc(C(F)(F)F)cc3)c(F)c2)cc2n1CC[C@H]1COCCN21 [Compound 20]
3.98,63.1,O=c1nc(OCc2cc(F)c(F)c(F)c2)cc2n1CC[C@@H]1COCCN21 [Compound 1]
0.0631,6.31,O=c1nc(OCc2cc(F)c(Oc3cccc(C(F)(F)F)c3)c(F)c2)cc2n1CC[C@@H]1COCCN21 [Compound 9]
0.126,12.6,O=c1nc(OCc2cc(F)c(Oc3ccc(C(F)(F)F)nc3)c(F)c2)cc2n1CC[C@H]1COCCN21 [Compound 17]
0.0501,6.31,O=c1nc(OCc2cc(F)c(Oc3ccc(C(F)(F)F)c(Cl)c3)c(F)c2)cc2n1CC[C@@H]1COCCN21 [Compound 12]
6.31,79.4,O=c1nc(OCc2cc(F)c(F)c(F)c2)cc2n1CC[C@H]1COCCN21 [Compound 13]
25.1,251,O=c1nc(OCc2cccc(F)c2F)cc2n1CC[C@@H]1COCCN21 [Compound 2]
0.316,15.8,Cc1ncc(Oc2c(F)cc(COc3cc4n(c(=O)n3)CC[C@@H]3COCCN43)cc2F)cn1 [Compound 8]
0.0794,7.94,O=c1nc(OCc2cc(F)c(Oc3ccc(C(F)(F)F)cc3)c(F)c2)cc2n1CC[C@@H]1COCCN21 [Compound 11]
0.0631,3.16,Cc1cc(Oc2c(F)cc(COc3cc4n(c(=O)n3)CC[C@@H]3COCCN43)cc2F)ccn1 [Compound 5]
31.6,316,O=c1nc(OCc2cc(F)c(F)cc2F)cc2n1CC[C@@H]1COCCN21 [Compound 3]
0.0794,10,O=c1nc(OCc2cc(F)c(Oc3cccc(OC(F)(F)F)c3)c(F)c2)cc2n1CC[C@@H]1COCCN21 [Compound 10]
0.1,7.94,O=c1nc(OCc2cc(F)c(Oc3ccc(C(F)(F)F)nc3)c(F)c2)cc2n1CC[C@@H]1COCCN21 [Compound 6]
31.6,316,O=c1nc(OCc2cccc(F)c2F)cc2n1CC[C@H]1COCCN21 [Compound 14]
0.0794,7.94,O=c1nc(OCc2cc(F)c(Oc3cccc(C(F)(F)F)c3)c(F)c2)cc2n1CC[C@H]1COCCN21 [Compound 19]

# Source: patent publication US12649749B2, “Preparation and application of tricyclic pyrimidinone compound and its composition” (NEUSCO BIOTECH LIMITED, priority 2020, dated 2026)
